In PubChem BioAssay AID1996:
≈ marks a conversion by molar mass, not a printed value.

Conditions: buffer; pH 7.4; 200.0 µM

| SMILES | solubility kinetic [µg/mL] |
| --- | --- |
| O=S1(=O)CC2SC(=S)N(Cc3ccccc3)C2C1 (stereo not given) | 1.8 (≈ 6.01 µM) |
| COc1ccc(CC(C)CC(=O)Nc2ccc(OC)cc2)cc1 (stereo not given) | 4.6 (≈ 14.7 µM) |
| O=C(CSc1ccccn1)N1CCc2ccccc21 | 3.7 (≈ 13.7 µM) |
| O=C(Nc1ccccc1-c1ccccc1)c1ccccc1 | > 41 |
| COc1ccc(N2C(=O)c3ccccc3S2(=O)=O)cc1 | 1.5 (≈ 5.18 µM) |
| C=Cn1ccnc1P(O)(=S)c1nc(C)c(CCOC(C)=O)s1 (stereo not given) | 43.1 (≈ 121 µM) |
| CC(SCc1ccccc1)C(=O)Nc1ccc(F)cc1 (stereo not given) | > 43.4 |
| CC(C)Oc1cccc(C(=O)C2CCCN(C(=O)c3ccsc3)C2)c1 (stereo not given) | 44.8 (≈ 125 µM) |
| Cc1ccc(C(=O)N=c2sccn2C)o1 | 32.9 (≈ 148 µM) |
| Cn1c(CC(=O)NNC(=O)c2ccccc2F)nc2ccccc21 | > 48.9 |
| O=C1CSC(c2cccnc2)N1c1ccc(Cl)cc1 (stereo not given) | > 43.6 |
| COc1ccc(NC(=O)CS(=O)(=O)c2ccc(C)cc2)c(OC)c1 | > 52.4 |
| O=C(COc1ccccc1Cl)Nc1ccc2oc(=O)ccc2c1 | < 0.7 |
| COc1cc(C)c(NC(=O)Cc2ccsc2)cc1OC | 42.4 (≈ 146 µM) |
| CC(C)Oc1ccc(OCCn2c(=S)[nH]c3c(N)ncnc32)cc1 | 45.2 (≈ 131 µM) |
| COc1ccc(NC(=O)c2cc(-c3ccncc3)nc3ccccc23)c(OC)c1 | 4.2 (≈ 10.9 µM) |
| O=[N+]([O-])c1ccc(Nc2cccc(F)c2)nc1 | 13.4 (≈ 57.5 µM) |
| COc1ccc(N2C(=O)Cc3ccccc3C2=O)cc1 | 39.3 (≈ 147 µM) |
| COC(=O)c1ccccc1NC(=S)N1CCN(c2ccccc2)CC1 | 13.4 (≈ 37.7 µM) |
| COc1ccccc1N1CC(C(=O)NCC2COc3ccccc3O2)CC1=O (stereo not given) | > 57.4 |
| Cc1cc(C)cc(NC(=O)Oc2ccccc2N2CCCCC2)c1 | 10.1 (≈ 31.1 µM) |
| CS(=O)(=O)N1CCC(C(=O)NCc2ccc(Cl)cc2)CC1 | > 49.6 |
| Cc1ccc(-c2csc(NC(=O)c3ccco3)n2)cc1C | 0.7 (≈ 2.35 µM) |
| Cc1sc2ncnc(SCC(=O)N3CCCCC3)c2c1C | 5.5 (≈ 17.1 µM) |

| SMILES | solubility kinetic [µg/mL] |
| --- | --- |
| COC(=O)c1cn(-c2cccc(C)n2)cn1 | > 32.6 |
| O=C(NC(=S)NCc1ccco1)c1ccccc1[N+](=O)[O-] | 8.7 (≈ 28.5 µM) |
| Cc1ccc(S(=O)(=O)Cc2ccc([N+](=O)[O-])cc2)cc1 | < 0.6 |
| Cc1ccc(CN2CCN(Cc3ccncc3)CC2CCO)o1 (stereo not given) | 34.3 (≈ 109 µM) |
| O=C(Nc1ccccc1)/C(=C\c1ccc(F)cc1)NC(=O)c1ccco1 | 2 (≈ 5.71 µM) |
| COc1ccc(-c2csc(Nc3cc(C)ccn3)n2)cc1C | < 0.2 |
| COc1ccc(CC(=O)OCC(=O)Nc2ccc3c(c2)OCO3)cc1 | > 51.5 |
| Cc1ccc(C(=O)N/C(=C\c2ccc(C)o2)C(=O)O)cc1 | > 42.8 |
| Cc1ccc(NC(=O)COc2ccccc2)cc1Cl | 2.4 (≈ 8.7 µM) |
| COc1ccc(OC)c(N=Cc2c(O)c3ccccc3oc2=O)c1 | 3.6 (≈ 11.1 µM) |
| N#Cc1ccc(S(=O)(=O)N2CCc3[nH]c4ccc(F)cc4c3C2)cc1 | < 0.3 |
| CCOc1ccc(NC(=O)Nc2ccc3c(c2)CCC3)cc1 | < 0.3 |
| O=C(NC1=NCCS1)C1CCCCC1 | > 31.8 |
| CC(C)(C)C(=O)O/N=C(\N)c1ccc(Br)cc1 | 30.3 (≈ 101 µM) |
| N#CC1(NC(=O)COC(=O)CN2C(=O)c3ccccc3C2=O)CCCCC1 | > 55.4 |
| C=CCN=C1S/C(=C/c2cccc([N+](=O)[O-])c2)C(=O)N1CC=C | 1.5 (≈ 4.55 µM) |
| Cc1ccc(-c2csc(NC(=O)c3ccccc3Cl)c2C(=O)O)cc1 | > 55.8 |
| Cc1ccc(OCCCCN2CCc3ccccc3C2)c(C)c1.Cl | 4.8 |
| O=C(OCC(=O)c1ccc[nH]1)c1ccc(C(F)(F)F)cc1 | 6.2 (≈ 20.9 µM) |
| CCc1c(O)nc(SC2CC(=O)N(c3ccc(F)c(Cl)c3)C2=O)[nH]c1=O (stereo not given) | 55.7 (≈ 140 µM) |
| COC(=O)c1cc(=O)n2c(sc3ccccc32)c1C#N | 1.3 (≈ 4.57 µM) |
| Clc1ccc(C(c2ccccc2)N2CCN(c3ccccn3)CC2)cc1 (stereo not given) | 0.9 (≈ 2.47 µM) |
| CC(=O)c1sc(NC(C)c2ccccc2)nc1C (stereo not given) | 30.4 (≈ 117 µM) |
| O=C(O)CCCC(=O)Nc1ccc(Oc2cccc(C(F)(F)F)c2)nc1 | > 55.2 |

| SMILES | solubility kinetic [µg/mL] |
| --- | --- |
| CCCC(=O)N1CCC(CCC(=O)NC2CC2)CC1 | > 40 |
| Cc1cc(C)c(-c2cc(C)nc3ncnn23)c(C)c1 | > 37.8 |
| COc1ccc(Nc2nc(OC)nc(OC)n2)cc1 | > 39.3 |
| COc1ccc(Cc2c([O-])[nH]c(=O)[nH]c2=O)c(OC)c1.[NH4+] | 43.1 |
| N#Cc1c(N)nc2c(c1-c1ccc(F)cc1)c(=O)nc1sccn12 | 5.7 (≈ 16.9 µM) |
| CSc1nc2c(c(=O)[nH]1)C(c1cccc(Cl)c1)CC(=O)N2 (stereo not given) | 4.6 (≈ 14.3 µM) |
| O=C(O)CC(NC(=O)Cc1ccccc1)c1ccccc1 (stereo not given) | 27.4 (≈ 96.7 µM) |
| O=C(NCCc1ccc(F)cc1)c1coc(=O)c(Br)c1 | 2.9 (≈ 8.53 µM) |
| COc1nc(NC2CCCCC2)nc(NC(C)(C)C)n1 | 20.7 (≈ 74.1 µM) |
| CC(C)(C)NC(=O)Cn1c(SCC(=O)NC2CCCC2)nc2ccccc21 | 52.9 (≈ 136 µM) |
| O=C(c1ccc(Cl)s1)N1CCN(S(=O)(=O)c2ccc(Cl)cc2)CC1 | 3.2 (≈ 7.89 µM) |
| COc1ccc(C(C)C)cc1S(=O)(=O)NCC1CCCO1 (stereo not given) | 44.3 (≈ 141 µM) |
| O=C(NCCN1CCOCC1)Nc1ccc(F)cc1 | > 40.1 |
| O=C(CN1CCN(c2ccccc2)CC1)Nc1ccc(F)cc1 | > 47 |
| O=C(O)CCC(CNS(=O)(=O)c1ccccc1)C(F)(F)F (stereo not given) | > 48.8 |
| CC1=C(C(N)=O)C(c2cccs2)NC(=S)N1 (stereo not given) | 34.7 (≈ 137 µM) |
| COc1ccc(N2C(=O)CC(c3ccc([N+](=O)[O-])cc3)C2=O)cc1 (stereo not given) | 14.9 (≈ 45.7 µM) |
| O=S(=O)(CCSc1ccc(C(F)(F)F)cn1)c1ccc(Cl)cc1 | < 0.8 |
| CCOC(=O)C1=C(Nc2ccc(OC)cc2)OCC1=O | 39.5 (≈ 142 µM) |
| Cn1cc(S(=O)(=O)N2CCNCC2)cc1C(N)=O | > 40.8 |
| NS(=O)(=O)c1ccc(NC(=O)c2cccc3ccccc23)cc1 | 3.1 (≈ 9.5 µM) |
| COc1cc(SC)ccc1C(=O)Nc1cccc(C)n1 | 3.4 (≈ 11.8 µM) |
| Cc1ccc(SCC(=O)c2c(C)nc3ccccn23)cc1 | 2.6 (≈ 8.77 µM) |
| Cc1ccc(CN(C)C(=O)c2cc(S(=O)(=O)N3CCOCC3)ccc2F)o1 | > 59.5 |

| SMILES | solubility kinetic [µg/mL] |
| --- | --- |
| Cc1ccc(CC(C(=O)O)C(C)C(=O)Nc2ccc(F)cc2)cc1 (stereo not given) | > 49.4 |
| CC(=O)c1c(O)c2ccccc2n(C(C)C)c1=O | 29.7 (≈ 121 µM) |
| Cc1ccc(-c2nc(-c3ccccn3)no2)cc1[N+](=O)[O-] | 7.4 (≈ 26.2 µM) |
| O=c1cc(C(F)(F)F)[nH]c(=S)n1-c1ccccc1 | > 40.8 |
| CCOC(=O)Cn1nc(C)n(-c2ccc(F)cc2)c1=O | > 41.9 |
| N/C(=N\OC(=O)c1cccc(F)c1)c1cccc([N+](=O)[O-])c1 | 1.3 (≈ 4.29 µM) |
| O=C(Nc1ccc2ncccc2c1)c1ccccc1 | 30.7 (≈ 124 µM) |
| O=C(NC1CCCC1)C1CCN(C(=O)c2ccccc2Cl)CC1 | > 50.2 |
| COC(=O)c1c(NC(=O)C2CC2)sc(C(=O)Nc2ccccc2)c1C | 1.7 (≈ 4.74 µM) |
| COc1cccc2c1O/C(=N\O)C(C(=O)Nc1ccc(C)cc1)C2 (stereo not given) | 45.7 (≈ 140 µM) |
| Nc1nc2c(Cl)cc(Cl)cc2s1 | 7.4 (≈ 33.8 µM) |
| Cc1cc(C)c(C2=CSC3=NS(=O)(=O)CCN23)c(C)c1 | > 46.3 |
| COc1ccc(C(=O)CSc2nc(C)cc(C)n2)cc1C | 17.4 (≈ 57.5 µM) |
| Br.CCn1c2c(c(=N)c3c1CCC3)CCCC2 | > 44.6 |
| COc1ccc(CCNS(=O)(=O)c2ccc(Cl)cc2)cc1OC | > 53.4 |
| COc1ccc(C)cc1NC(=O)C(C)N1CCOCC1.Cl (stereo not given) | > 47.2 |
| CC(=O)OCC(=O)Nc1c(C)cccc1C | > 33.2 |
| Cl.O=C(c1cc2ccccc2o1)N1CCN(Cc2ccccc2)CC1 | 41.5 |
| COc1ccccc1NCCC(=O)OCC(=O)Nc1ccccc1Cl | > 54.4 |
| CC1CN(/C=C/C=O)C(C)CC1OC(=O)c1ccccc1 (stereo not given) | > 43.1 |
| CCCNC(=O)CSc1nnc(-c2ccc(F)cc2)o1 | > 44.3 |
| Cc1ccc(CONC(=O)c2ccc(C)cc2)cc1 | 20.2 (≈ 79.1 µM) |
| COc1ccc(C(=O)Nc2cc(C(=O)O)cc(C(=O)O)c2)cc1Cl | > 52.5 |
| Cc1cc(C(=O)N2CCC(Cc3ccccc3)CC2)no1 | 36.7 (≈ 129 µM) |

| SMILES | solubility kinetic [µg/mL] |
| --- | --- |
| COc1ccccc1-c1noc(CCCC(=O)N2CCOCC2)n1 | > 49.7 |
| Cc1ccccc1-c1nnc(SCCC(=O)N2CCOCC2)o1 | > 50 |
| CC(NC(=O)c1ccccc1Cl)C1CC2CCC1C2 (stereo not given) | 19.7 (≈ 70.9 µM) |
| Cc1[nH]c(=O)[nH]c(=O)c1S(=O)(=O)Nc1ccc(F)cc1Cl | > 50.1 |
| COc1ccccc1OCC(=O)Nc1sc2c(c1C(N)=O)CCC2 | 4.6 (≈ 13.3 µM) |
| CCOC(=O)c1cnc(Nc2ccccc2)nc1C(F)(F)F | 2.1 (≈ 6.75 µM) |
| Cc1ccc(/C=C/C(=O)O)cc1S(=O)(=O)N1CCc2ccccc21 | > 51.5 |
| C=CCn1c(COc2ccccc2)nc2ccccc21 | 31.9 (≈ 121 µM) |
| CN(C)C(=O)CN1C(=O)NC2(CCCc3ccccc32)C1=O (stereo not given) | > 45.2 |
| CCc1c(C(=O)N2CCCN(C)CC2)csc1C | > 40 |
| Cc1cccc(N2CCN(C(=O)c3ccc4ccccc4c3)CC2C)c1 (stereo not given) | 7.4 (≈ 21.5 µM) |
| O=C(COC(=O)c1ccc(Cl)nc1)NCc1cccs1 | 25.2 (≈ 81.1 µM) |
| COc1ccc(CNc2cc(C)nc3ccc(OC)cc23)cc1 | 37.8 (≈ 123 µM) |
| COc1ccc(C(=O)NC2=NCCS2)c(OC)c1 | > 39.9 |
| NC(=O)C1CCN(CC(=O)Nc2ccc3c(c2)OCCO3)CC1 | > 47.9 |
| O=C(Cn1c(=O)oc2ccccc21)NCCc1ccccc1Cl | 1.5 (≈ 4.53 µM) |
| COc1ccccc1NC(=O)c1ccc(-n2ccnc2)c([N+](=O)[O-])c1 | > 50.7 |
| COc1cccc(NC(=O)C(C)SCc2ccccc2)c1 (stereo not given) | > 45.2 |
| CSCC(=O)N1CCC(CCC(=O)NC2CC2)CC1 | > 42.7 |
| O=C(Cc1ccc(F)cc1)Nc1nc(-c2ccc(F)c(F)c2)cs1 | 1.4 (≈ 4.02 µM) |
| Cc1cccc(C)c1OC(=O)Cc1ccccc1[N+](=O)[O-] | 1.8 (≈ 6.31 µM) |
| Cc1sc2ncnc(NCCCN3CCCC3=O)c2c1C | > 45.7 |
| CCC(CC)C(=O)N1CCN(Cc2nc3ccccc3c(=O)[nH]2)CC1 | > 51.4 |
| CC1(C)CC(=O)C(N=Nc2cccnc2)=C(O)C1 | > 36.8 |
